{"source": "patent US20070218150A1", "about": "“Active Oxygen Scavenging Agent and Moisturizing Agent Containing Wild Watermelon Extract” (priority 2004, published 2007)", "assay": "active oxygen (hydroxyl radical) scavenging, competitive reaction analysis using salicylic acid oxidation as an index", "type": "biochemical", "details": "50 mg/l of citrulline solution; 25 degrees, 90 minutes, pH 7.4", "experimental": "The active oxygen scavenging ability of the wild watermelon fruit extract is assayed by competitive reaction analysis using salicylic acid oxidation as an index. Specifically, 2 mM salicylic acid and the wild watermelon fruit extract of various concentrations are dissolved in 50 mM phosphate buffer (pH 7.4). After that, by adding 0.6 mM of hydrogen peroxide, 0.15 mM of FeEDTA and 0.26 mM of ascorbic acid, hydroxyl radical is generated, and reacted at 25 degrees for 90 minutes. Quantitation of dihydroxyl benzoic acid (DHBA) generated by salicylic acid oxidation followed the method as set forth in the literature (Smirnofff and Cumbes (1989) Phytochemistry, 28: 1057-1060.)"}
{"molecule": "NC(=O)NCCC[C@H](N)C(=O)O", "note": "[citrulline]", "values": [{"measurement": "inhibition of salicylic acid oxidation", "value": 6, "unit": "%"}]}
